Read-outs that look alike come from different tables or passages of the source.
Experiments:
hCHT [1] = target: T1, hCHT (Homo sapiens, UniProt Q9GZV3); experiment: [3H]choline transport in resealed membrane vesicles from hCHT transfected COS-7 cells; format: biochemical
T1 construct: The hCHT cDNA encodes a protein of 580 amino acids; expressed in transfected cells; host or cells: COS-7 (transient, FuGene 6, pcDNA3)
T1 sequence (Q9GZV3 1-580): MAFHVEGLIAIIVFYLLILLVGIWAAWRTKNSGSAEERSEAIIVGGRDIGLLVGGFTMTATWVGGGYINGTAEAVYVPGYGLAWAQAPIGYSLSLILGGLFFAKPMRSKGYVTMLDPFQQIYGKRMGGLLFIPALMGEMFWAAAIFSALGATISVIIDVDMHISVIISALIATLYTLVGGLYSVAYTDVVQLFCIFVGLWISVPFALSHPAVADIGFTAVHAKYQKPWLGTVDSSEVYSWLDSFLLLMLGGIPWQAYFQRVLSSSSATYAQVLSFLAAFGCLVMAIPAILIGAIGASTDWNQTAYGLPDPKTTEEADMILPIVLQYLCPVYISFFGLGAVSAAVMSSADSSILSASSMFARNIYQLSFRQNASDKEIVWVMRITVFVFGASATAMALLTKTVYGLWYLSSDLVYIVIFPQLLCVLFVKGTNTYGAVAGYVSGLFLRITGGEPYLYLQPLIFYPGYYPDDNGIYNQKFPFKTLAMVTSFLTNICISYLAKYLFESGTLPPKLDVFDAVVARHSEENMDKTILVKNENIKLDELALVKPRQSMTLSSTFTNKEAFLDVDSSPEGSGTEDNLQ
Description: To assay CHT activity in resealed membrane vesicles from hCHT-transfected mammalian cells, the inventors transiently transfected COS-7 cells with hCHT as described herein above and prepared membrane fractions as described for binding assays. After obtaining the membrane fractions, resealed membrane vesicles were prepared as described by Fisher et al., 1992 (Fishe et al., 1992) with slight modifications. The membrane pellets were resuspended in 2 ml of HTE buffer (˜2 μg/μl) and the suspension was rotated gently at 4° C. for 45 min. Membrane vesicle suspensions were centrifuged (27,000×g) for 20 min at 4° C. and the resulting pellet suspended in 2 ml of Na^+ and Cl^− free HTE buffer. Protein content of the suspension was determined (Bradford; BioRad) and 50 μg of the vesicle suspension (1 μg/μl) was transferred to each tube for triplicate assays. […] After a 5 min incubation at room temperature, vesicles were rapidly filtered through Whatman GF/B filters soaked in 0.3% polyethylenimine in HTE buffer and the accumulated radioactivity quantified as described for binding assays. […] In all experiments, non-specific uptake was quantified by determining uptake in the presence of 1 μM HC-3 and subtracted from the total uptake to yield specific transport.

mCHT [2] = target: T2, mCHT (Mus musculus, UniProt Q8BGY9, Q119K/Q86H); experiment: [3H]HC-3 binding in membrane fractions of mCHT transfected COS-7 cells; conditions: for Ki: mCHT transfected COS-7 cell membrane, read-out: Ki in inhibiting [3H]HC-3 binding
T2 construct: expressed in transfected cells; host or cells: COS-7 (transient, pcDNA3)
T2 sequence (Q8BGY9 with tags, fused parts or gaps Q86H/Q119K): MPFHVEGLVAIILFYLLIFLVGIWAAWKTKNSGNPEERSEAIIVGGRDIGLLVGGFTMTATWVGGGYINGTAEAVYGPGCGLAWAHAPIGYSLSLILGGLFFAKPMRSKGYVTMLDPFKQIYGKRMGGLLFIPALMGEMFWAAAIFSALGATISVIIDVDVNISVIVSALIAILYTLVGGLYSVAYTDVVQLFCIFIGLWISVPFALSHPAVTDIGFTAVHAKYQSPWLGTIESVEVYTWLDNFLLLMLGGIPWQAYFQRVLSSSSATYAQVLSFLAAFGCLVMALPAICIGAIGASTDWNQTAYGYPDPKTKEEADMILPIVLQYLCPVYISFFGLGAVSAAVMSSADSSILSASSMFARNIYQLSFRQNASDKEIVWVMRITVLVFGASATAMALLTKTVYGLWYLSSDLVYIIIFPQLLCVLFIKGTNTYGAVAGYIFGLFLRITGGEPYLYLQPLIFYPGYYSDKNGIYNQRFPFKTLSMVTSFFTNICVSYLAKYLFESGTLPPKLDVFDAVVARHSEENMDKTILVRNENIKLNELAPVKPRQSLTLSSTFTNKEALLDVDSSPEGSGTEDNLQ

hCHT [3] = target: T1, hCHT; experiment: [3H]HC-3 radioligand binding in membrane fractions of hCHT transfected COS-7 cells; conditions: for Ki: 10 nM [3H]HC-3, hCHT transfected COS-7 cell membranes, read-out: Ki in inhibiting [3H]HC-3 binding
Description: COS-7 cells were transfected with a pcDNA3 vector containing hCHT cDNA using the FuGene 6 transfection reagent (Roche Diagnostics) following the manufacturer's protocols. Briefly, COS-7 cells were cultured in Dulbecco's modified Eagles' medium (DMEM) supplemented with 10% fetal bovine serum (Hyclone), 100 μg/ml of penicillin and streptomycin at a density of 3-4 million cells in 150 mm culture dishes or 5×10^4 cells per well in 24 well dishes (Falcon). After 24 hr, cells were transfected and 48 hr later, the cells were harvested and processed for membrane binding and whole cell or vesicle transport assays.
Monolayers of hCHT transfected COS-7 cells were washed with 30 ml of HTE buffer and harvested in 10 ml of homogenization buffer (0.32 M sucrose in HTE buffer). Cells were homogenized at 20,000 rpm for 25 sec using a Polytron tissue homogenizer (Brinkman). The homogenate was centrifuged at 100,000×g for 45 min at 4° C. The resulting pellet was suspended in 2 ml of HTE buffer, assayed for protein content (Bradford method; BioRad) and 50 μg of the membrane suspension (1 μg/μl) was transferred to each tube in triplicate. Unless otherwise indicated, all binding assays were performed in the presence of 150 mM NaCl in HTE buffer. Assays were initiated by the addition of [^3H]HC-3 (127 Ci per mmol; NEN Life Science Products, 10 nM final concentration). After a 1 hr incubation at room temperature, membranes were rapidly filtered through glass fiber GF/B filters (Brandel) soaked in 0.3% polyethylenimine (Sigma) in HTE buffer and accumulated radioactivity was quantified using liquid scintillation spectrometry (Packard). To test the ion dependence of hCHT binding activity, Na^+ was replaced in the assay buffer with equimolar concentrations of Li^+ whereas Cl^− was replaced with equimolar concentrations of isethionate. Non-specific binding was quantified by measuring [^3H] […] Data for binding and transport assays (see below) were analyzed using nonlinear least squares curve fitting and Scatchard transformations (Kaleidagraph, Abelbeck).

mCHT [4] = target: T2, mCHT; experiment: choline uptake in resealed membrane vesicles from mCHT transfected COS-7 cells; format: biochemical; conditions: for IC50: resealed membrane vesicles, mCHT
[5] = substrate: C[N+](C)(C)CCO; experiment: cells, lysate or membranes named

CC(=O)OCC[N+](C)(C)C [ACh, acetylcholine]
Ki (hCHT [1]): 570 nM
Ki (mCHT [2]; ACh in the presence of physostigmine): 433000 nM
Ki (hCHT [3]; ACh in the presence of 10 μM physostigmine): 433000 nM

C[N+](C)(C)CCO [choline]
Ki (hCHT [1]): 123 nM
IC50 (mCHT [4]): 123 nM

C[N+]1(C)CCOC(O)(c2ccc(-c3ccc(C4(O)C[N+](C)(C)CCO4)cc3)cc2)C1.[Br-].[Br-] (stereo not drawn) [HC-3, hemicholinium-3]
effect of addition of HC-3 on [3H]choline uptake (hCHT [1]; hCHT vesicles against vector transfected controls, data not shown): reduced [^3H]choline uptake to levels seen in vector transfected COS-7 membrane vesicles
Ki (hCHT [1]; read-out: Ki for inhibition of [3H]choline uptake, resealed membrane vesicles, hCHT, 20 nM [3H]choline): 5 nM
effect on choline uptake (mCHT [4]; 1 μM HC-3, mCHT vesicles against vector transfected): reduced choline uptake to levels seen in vector transfected COS-7 membrane vesicles
IC50 (mCHT [4]; read-out: IC50 for inhibition of mCHT-mediated choline uptake): 5 nM
Kd (mCHT [2]; Scatchard transformation, mCHT expressing membranes, read-out: equilibrium dissociation constant (Kd) of [3H]HC-3 binding): 5 nM
Ki (mCHT [2]): 5 nM
Ki (hCHT [3]): 4 nM
Hill coefficient of [3H]HC-3 binding (hCHT [3]; single site kinetics): 0.99

B1: hCHT (Homo sapiens) (protein)
chain: MAFHVEGLIAIIVFYLLILLVGIWAAWRTKNSGSAEERSEAIIVGGRDIGLLVGGFTMTATWVGGGYINGTAEAVYVPGYGLAWAQAPIGYSLSLILGGLFFAKPMRSKGYVTMLDPFQQIYGKRMGGLLFIPALMGEMFWAAAIFSALGATISVIIDVDMHISVIISALIATLYTLVGGLYSVAYTDVVQLFCIFVGLWISVPFALSHPAVADIGFTAVHAKYQKPWLGTVDSSEVYSWLDSFLLLMLGGIPWQAYFQRVLSSSSATYAQVLSFLAAFGCLVMAIPAILIGAIGASTDWNQTAYGLPDPKTTEEADMILPIVLQYLCPVYISFFGLGAVSAAVMSSADSSILSASSMFARNIYQLSFRQNASDKEIVWVMRITVFVFGASATAMALLTKTVYGLWYLSSDLVYIVIFPQLLCVLFVKGTNTYGAVAGYVSGLFLRITGGEPYLYLQPLIFYPGYYPDDNGIYNQKFPFKTLAMVTSFLTNICISYLAKYLFESGTLPPKLDVFDAVVARHSEENMDKTILVKNENIKLDELALVKPRQSMTLSSTFTNKEAFLDVDSSPEGSGTEDNLQ
Km ([5]; other: resealed membrane vesicles, hCHT): 1.6 µM

B2: mCHT (Mus musculus; Q119K/Q86H) (protein)
chain: MPFHVEGLVAIILFYLLIFLVGIWAAWKTKNSGNPEERSEAIIVGGRDIGLLVGGFTMTATWVGGGYINGTAEAVYGPGCGLAWAHAPIGYSLSLILGGLFFAKPMRSKGYVTMLDPFKQIYGKRMGGLLFIPALMGEMFWAAAIFSALGATISVIIDVDVNISVIVSALIAILYTLVGGLYSVAYTDVVQLFCIFIGLWISVPFALSHPAVTDIGFTAVHAKYQSPWLGTIESVEVYTWLDNFLLLMLGGIPWQAYFQRVLSSSSATYAQVLSFLAAFGCLVMALPAICIGAIGASTDWNQTAYGYPDPKTKEEADMILPIVLQYLCPVYISFFGLGAVSAAVMSSADSSILSASSMFARNIYQLSFRQNASDKEIVWVMRITVLVFGASATAMALLTKTVYGLWYLSSDLVYIIIFPQLLCVLFIKGTNTYGAVAGYIFGLFLRITGGEPYLYLQPLIFYPGYYSDKNGIYNQRFPFKTLSMVTSFFTNICVSYLAKYLFESGTLPPKLDVFDAVVARHSEENMDKTILVRNENIKLNELAPVKPRQSLTLSSTFTNKEALLDVDSSPEGSGTEDNLQ
Km ([5]; other: Eadie-Hofstee plot, single site, mCHT vesicles): 2 µM
